Test results: ChEMBL document CHEMBL4334480, “Anti-inflammatory Ellagitannins from Cleidion brevipetiolatum for the Treatment of Rheumatoid Arthritis” (J Nat Prod, 2019)
Active and inactive are the calls of the source. No cut-off for these calls is given here.

Assays:
[1] = test system: RAW264.7; test: Cytotoxicity against mouse RAW264.7 cells after 24 hrs by MTT assay; format: cell-based; details: raw264.7, 24 h
[2] = test system: RAW264.7; test: Anti-inflammatory activity in mouse RAW264.7 cells assessed as inhibition of LPS-induced nitric oxide production preincubated for 2 hrs followed by LPS stimulation and measured after 24 hrs by Griess assay; format: functional, cell-based
[3] = biological target: Transcription factor p65 (Mus musculus) (UniProt Q04207); test: Inhibition of LPS-induced NFkappaB p65 nuclear translocation in mouse RAW264.7 cells at 5 to 50 uM preincubated for 2 hrs followed by LPS-stimulation after 22 hrs by Western blot analysis; format: cell-based
[4] = biological target: T1, NF-kappa-B inhibitor alpha (Mus musculus) (UniProt Q9Z1E3); test: Inhibition of LPS-induced IKBalpha phosphorylation mouse RAW264.7 cells at 5 to 50 uM preincubated for 2 hrs followed by LPS-stimulation after 22 hrs by Western blot analysis; format: cell-based
T1 sequence (whole entry): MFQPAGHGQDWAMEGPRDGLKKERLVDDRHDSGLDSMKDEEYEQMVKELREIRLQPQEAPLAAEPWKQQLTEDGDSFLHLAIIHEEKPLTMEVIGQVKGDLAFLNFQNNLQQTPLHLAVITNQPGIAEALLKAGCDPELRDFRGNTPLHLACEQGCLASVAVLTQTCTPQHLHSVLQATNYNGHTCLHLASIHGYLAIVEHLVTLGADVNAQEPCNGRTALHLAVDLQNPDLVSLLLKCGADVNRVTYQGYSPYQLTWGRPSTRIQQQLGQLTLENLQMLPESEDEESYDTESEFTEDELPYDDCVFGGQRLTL

[5] = test system: RAW264.7; test: Antiinflammatory activity against mouse RAW264.7 cells assessed as reduction in LPS-induced Cox2 protein expression compound preincubated for 2 hrs followed by LPS stimulation after 22 hrs by Western blot analysis; format: functional, cell-based
[6] = test system: RAW264.7; test: Antiinflammatory activity against mouse RAW264.7 cells assessed as reduction in LPS-induced iNOS protein expression compound preincubated for 2 hrs followed by LPS stimulation after 22 hrs by Western blot analysis; format: functional, cell-based
[7] = test system: RAW264.7; test: Antiinflammatory activity against mouse RAW264.7 cells assessed as reduction in LPS-induced IL-1beta mRNA expression compound preincubated for 2 hrs followed by LPS stimulation after 22 hrs by RT-PCR analysis; format: functional, cell-based
[8] = test system: RAW264.7; test: Antiinflammatory activity against mouse RAW264.7 cells assessed as reduction in LPS-induced Cox2 mRNA expression compound preincubated for 2 hrs followed by LPS stimulation after 22 hrs by RT-PCR analysis; format: functional, cell-based
[9] = Toxicity in DBA/1J mouse assessed as effect on body weight at 50 mg/kg, po; format: organism-based; details: in vivo
[10] = test system: RAW264.7; test: Antiinflammatory activity against mouse RAW264.7 cells assessed as reduction in LPS-induced iNOS mRNA expression compound preincubated for 2 hrs followed by LPS stimulation after 22 hrs by RT-PCR analysis; format: functional, cell-based
[11] = Toxicity in DBA/1J mouse assessed as effect on behavioral changes at 50 mg/kg, po; format: organism-based; details: in vivo
[12] = test system: Mus musculus; test: Antiarthritic activity in collagen-induced rheumatoid arthritis DBA/1J mouse model assessed as reduction in hindlimb swelling at 50 mg/kg, po; format: functional, organism-based
[13] = test system: Mus musculus; test: Antiarthritic activity in collagen-induced rheumatoid arthritis DBA/1J mouse model assessed as reduction in forelimb swelling at 50 mg/kg, po; format: functional, organism-based
[14] = test system: Mus musculus; test: Antiarthritic activity in collagen-induced rheumatoid arthritis DBA/1J mouse model at 50 mg/kg, po after 22 days; format: functional, organism-based
[15] = test system: Mus musculus; test: Antiinflammatory activity against carrageenan-induced paw oedema in ICR mouse assessed as reduction in NO level in serum at 50 mg/kg, po administered 30 mins prior to carrageenan challenge after 5 hrs post carrageenan; format: functional, organism-based
[16] = test system: Mus musculus; test: Antiinflammatory activity against carrageenan-induced paw oedema in ICR mouse assessed as inhibition of paw edema at 50 mg/kg, po administered 30 mins prior to carrageenan challenge after 5 hrs post carrageenan challenge; format: functional, organism-based
[17] = test system: Mus musculus; test: Antiinflammatory activity against carrageenan-induced paw edema in ICR mouse assessed as inhibition of paw edema at 50 mg/kg, po administered 30 mins prior to carrageenan challenge measured at 2 hrs post carrageenan challenge relative to control; format: functional
[18] = test system: RAW264.7; test: Inhibition of LPS-induced JNK phosphorylation in mouse RAW264.7 cells at 5 to 50 uM preincubated for 2 hrs followed by LPS-stimulation after 22 hrs by Western blot analysis; format: cell-based
[19] = biological target: MAP kinase p38 (Mus musculus) (UniProt P47811+O08911+Q9WUI1+Q9Z1B7); test: Inhibition of LPS-induced P38 phosphorylation in mouse RAW264.7 cells at 5 to 50 uM preincubated for 2 hrs followed by LPS-stimulation after 22 hrs by Western blot analysis; format: cell-based
[20] = test system: RAW264.7; test: Inhibition of LPS-induced ERK phosphorylation in mouse RAW264.7 cells at 5 to 50 uM preincubated for 2 hrs followed by LPS-stimulation after 22 hrs by Western blot analysis; format: cell-based
[21] = test system: RAW264.7; test: Antiinflammatory activity against mouse RAW264.7 cells assessed as effect on LPS-induced TNF-alpha mRNA expression at 5 to 50 uM preincubated for 2 hrs followed by LPS stimulation after 22 hrs by RT-PCR analysis; format: functional, cell-based
[22] = test system: Mus musculus; test: Antiinflammatory activity against carrageenan-induced paw oedema in ICR mouse assessed as reduction in NO level in serum at 20 mg/kg, po administered 30 mins prior to carrageenan challenge after 5 hrs post carrageenan; format: functional, organism-based
[23] = test system: Mus musculus; test: Antiinflammatory activity against carrageenan-induced paw oedema in ICR mouse assessed as inhibition of paw edema at 20 mg/kg, po administered 30 mins prior to carrageenan challenge after 5 hrs post carrageenan challenge; format: functional, organism-based
[24] = test system: Mus musculus; test: Antiinflammatory activity against carrageenan-induced paw oedema in ICR mouse assessed as inhibition of paw edema at 20 mg/kg, po administered 30 mins prior to carrageenan challenge measured at 2 hrs post carrageenan challenge relative to control; format: functional

Chain of Transcription factor p65 (Mus musculus) (Q04207 whole entry): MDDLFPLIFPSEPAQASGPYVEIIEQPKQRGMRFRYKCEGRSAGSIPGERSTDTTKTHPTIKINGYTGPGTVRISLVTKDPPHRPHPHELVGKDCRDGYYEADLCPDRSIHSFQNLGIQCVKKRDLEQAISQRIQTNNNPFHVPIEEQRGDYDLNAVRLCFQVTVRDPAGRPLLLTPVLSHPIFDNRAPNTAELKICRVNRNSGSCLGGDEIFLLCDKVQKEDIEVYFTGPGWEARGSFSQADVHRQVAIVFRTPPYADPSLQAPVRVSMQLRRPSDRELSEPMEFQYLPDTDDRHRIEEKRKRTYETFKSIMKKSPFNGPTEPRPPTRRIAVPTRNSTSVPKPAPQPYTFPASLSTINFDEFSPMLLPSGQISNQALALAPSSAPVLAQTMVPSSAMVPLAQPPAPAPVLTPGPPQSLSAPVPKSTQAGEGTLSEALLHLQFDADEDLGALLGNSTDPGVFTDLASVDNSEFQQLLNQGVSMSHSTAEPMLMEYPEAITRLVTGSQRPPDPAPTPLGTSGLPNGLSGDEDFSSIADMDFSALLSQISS

IC50 [2] | SMILES | Activity [1] | also measured
4.1 µM | C=CCc1ccc(O[C@@H]2O[C@H](CO)[C@H]3OC(=O)c4cc(O)c(O)c(O)c4-c4c(cc(O)c(O)c4O)C(=O)O[C@@H]3[C@H]2O)c(O)c1 | Non-Toxic | 
> 50 µM | C=CCc1ccc(O[C@@H]2O[C@H](CO)[C@@H](O)[C@H](O)[C@H]2O)c(O)c1 | Non-Toxic | 
1.9 µM | C=CCc1ccc(O[C@@H]2O[C@H](CO[C@@H]3O[C@@H](C)[C@@H]4OC(=O)c5cc(O)c(O)c(O)c5-c5c(cc(O)c(O)c5O)C(=O)O[C@H]4[C@H]3O)[C@H]3OC(=O)c4cc(O)c(O)c(O)c4-c4c(cc(O)c(O)c4O)C(=O)O[C@@H]3[C@H]2O)cc1 | Non-Toxic | inhibition [3]: Active; inhibition [4]: Active; Activity [5]: Dose-dependent effect; Activity [6]: Dose-dependent effect; Activity [7]: Dose-dependent effect; Activity [8]: Dose-dependent effect; Activity [9]: Non-Toxic; Activity [10]: Dose-dependent effect; Activity [11]: Non-Toxic; Activity [12]: Active; Activity [13]: Active; Activity [14]: Active; Activity [15]: Active; inhibition [16]: Active; inhibition in vivo at 50 mg/kg [17]: 26.9%; inhibition [18]: inactive; inhibition [19]: inactive; inhibition [20]: inactive; Activity [21]: inactive
> 50 µM | C=CCc1ccc(O[C@@H]2O[C@H](CO)[C@@H](O)[C@H](O)[C@H]2O)cc1 | Non-Toxic | 
3.6 µM | C/C=C/c1ccc(O[C@@H]2O[C@H](CO[C@@H]3O[C@@H](C)[C@@H]4OC(=O)c5cc(O)c(O)c(O)c5-c5c(cc(O)c(O)c5O)C(=O)O[C@H]4[C@H]3O)[C@H]3OC(=O)c4cc(O)c(O)c(O)c4-c4c(cc(O)c(O)c4O)C(=O)O[C@@H]3[C@H]2O)cc1 | Non-Toxic | 
> 50 µM | O=c1oc2c(O)c(O)cc3c(=O)oc4c(O)c(O)cc1c4c23 [ELLAGIC ACID] | Non-Toxic | 
8.2 µM | C/C=C/c1ccc(O[C@@H]2O[C@H](CO)[C@H]3OC(=O)c4cc(O)c(O)c(O)c4-c4c(cc(O)c(O)c4O)C(=O)O[C@@H]3[C@H]2O)cc1 | Non-Toxic | 
3.9 µM | C=CCc1ccc(O[C@@H]2O[C@H](COC(=O)c3cc(O)c(O)c(O)c3)[C@H]3OC(=O)c4cc(O)c(O)c(O)c4-c4c(cc(O)c(O)c4O)C(=O)O[C@@H]3[C@H]2O)c(O)c1 | Non-Toxic | 
2.1 µM | C/C=C/c1ccc(O[C@@H]2O[C@H](CO)[C@H]3OC(=O)c4cc(O)c(O)c(O)c4-c4c(cc(O)c(O)c4O)C(=O)O[C@@H]3[C@H]2O)c(O)c1 | Non-Toxic | 
 | COc1ccc2c(c1)c(CC(=O)O)c(C)n2C(=O)c1ccc(Cl)cc1 [INDOMETHACIN] |  | Activity [22]: Active; inhibition [23]: Active; inhibition in vivo at 20 mg/kg [24]: 26.5%
> 50 µM | C/C=C/c1ccc(O[C@@H]2O[C@H](CO)[C@@H](O)[C@H](O)[C@H]2O)cc1 | Non-Toxic | 
29.2 µM | C/C=C/c1ccc(O[C@@H]2O[C@H](CO)[C@@H](O)[C@H](O)[C@H]2O)c(O)c1 | Non-Toxic | 
4.3 µM | C=CCc1ccc(O[C@@H]2O[C@H](CO)[C@H]3OC(=O)c4cc(O)c(O)c(O)c4-c4c(cc(O)c(O)c4O)C(=O)O[C@@H]3[C@H]2O)cc1 | Non-Toxic | 

SMILES | IC50 [2] | Activity [1] | also measured
O=C(O)c1cc(O)c(O)c(O)c1 [GALLIC ACID] | > 50 µM | Non-Toxic | 
O=c1cc(-c2ccc(O)c(O)c2)oc2cc(O)cc(O)c12 [LUTEOLIN] | 5.8 µM | Non-Toxic | 
